Laboratory results as given in EP0358047A2, “Method of controlling phytopathogenic fungi” (AMERICAN CYANAMID COMPANY, priority 1988, dated 1990).
Where two headings read alike, the source gives them in different places.

What was measured:
Assay in all cases: In vitro fungicide screen: inhibition of mycelial growth on agar medium
Type in all cases: cell-based
Botrytis cinerea (Botry) = settings: five days, room temperature
Protocol: (§1) Severe soilborne diseases such as damping off, seedling blight, crown rot, and root rot, among others are caused by certain plant pathogenic fungi. An in vitro assay is conducted to determine whether test compounds will inhibit the mycelial growth of said fungi. Pathogens, the method of testing, and the rating system used are reported below.
(§2) Assay fungi include the following plant pathogens: • Botrytis cinerea (Botry) • Pseudocerosporella herpotrichoides (Pseudo) • Pythium ultimum (Pyth) • Rhizoctonia solani (Rhiz)
(§3) The test compound (2.5-10 mg) is dissolved in 0.5 mL acetone, diluted with 4.5 mL sterile deionized water, and mixed with 95 mL of an autoclaved and partially cooled, chemically defined agar medium in a 250 mL flask. Test compounds that are insoluble are prepared as a fine suspension ultrasonically, or with a glass tissue grinder, before addition to the medium. The chemically defined medium used in these experiments is as follows: • 15 g of sucrose, 0.5 g NH4Cl, 0.5 g KNO3, 0.5 g KH2PO4, 0.5 g K2HP04, 0.25 g MgSO4.7H2O, 50 mg CaC)2.6H20, 0.75 mg FeSO4.7H2O, 0.22 mg MnSO4.5H2O, 0.6 mg CuSO4.5H2O, 7.5 mg ZnC12, 2.5 mg thiamine, 60 µg(NH4)6Mo7O24.4H2O, 90 u.g H3BO3, 5 ug biotin, 20 g agar, and water to 1L.
(§4) The mixture of test compound and agar medium as described above is poured into several 100 mm x 15 mm sterile plastic plates and allowed to solidify. The surface of each plate is inoculated with a single disc of mycelium and agar cut with an 8 mm diameter cork borer from actively growing cultures of assay fungi on a chemically defined agar medium. The plates are incubated at room temperature. Growth inhibition is determined when the mycelial growth on unamended control media has reached the edge of the petri plates. The time interval varies depending on the growth rate of the fungus; two days for Pythium ultimum (Pyth) and Rhizoctonia solani (Rhiz), five days for Botrytis cinerea (Botry), and 7-10 days for Pseudocercosporella herpotrichoides (Pseudo). Each colony diameter is measured and compared with the untreated control and the percent inhibition is calculated as follows: [formula] Each test includes a solvent blank consisting of the formulation without a test compound in addition to the untreated control.

[1] = test system: Pseudocercosporella herpotrichoides (Pseudo); settings: 7-10 days, room temperature
Protocol: as §1, §2, §3, §4

Pythium ultimum (Pyth) = settings: two days, room temperature; for inhibition at 1 ppm: Rate 1 ppm in agar medium
Protocol: as §1, §2, §3, §4

[2] = test system: Rhizoctonia solani (Rhiz); settings: for inhibition at 10 ppm: read-out: % Growth Inhibition Rhiz
Protocol: as §1, §2, §3, §4

[3] = Botrytis cinerea, 120 h, Rate 100 ppm in agar medium
[4] = Oculimacula yallundae, Rate 100 ppm in agar medium
[5] = Globisporangium ultimum, 48 h, Rate 100 ppm in agar medium
[6] = Rhizoctonia solani, 48 h, Rate 100 ppm in agar medium, two days, room temperature
[7] = Rhizoctonia solani, 48 h, Rate 10 ppm in agar medium, two days, room temperature

SMILES	inhibition at 100 ppm (Botrytis cinerea (Botry); [3]) [%]	inhibition at 100 ppm [1, 4] [%]	inhibition at 100 ppm (Pythium ultimum (Pyth); [5]) [%]	inhibition at 100 ppm [2, 6] [%]	further results
N#Cc1cc[nH]c1-c1ccc(Cl)cc1 [2(p-Chlorophenyl)-pyrrole-3-carbonitrile]	68	86	95	61	–
O=[N+]([O-])c1c(-c2ccccc2)[nH]c(Br)c1Br [2,3-Dibromo-4-nitro-5-phenyl-pyrrole]	87	71	97	63	–
O=[N+]([O-])c1c(-c2ccc(C(F)(F)F)cc2)[nH]c(Cl)c1Cl [2,3-Dichloro-4-nitro-5-(α,α,α-trifluoro-p-tolyl)-pyrrole]	100	100	100	100	–
O=[N+]([O-])c1c(-c2ccccc2)[nH]c(Cl)c1Cl [2,3-Dichloro-4-nitro-5-phenyl-pyrrole, 2,3-Dichloro-4-nitro-5-phenylpyrrole]	97	100	100	81	–
O=[N+]([O-])c1c(-c2ccc(Cl)cc2)[nH]c(Cl)c1Cl [2,3-Dichloro-5-(p-chlorophenyl) -4-nitropyrrole]	96.3	50	92.1	96	–
O=[N+]([O-])c1c(Br)[nH]c(Br)c1-c1ccccc1 [2,5-dibromo-3-nitro-4-phenyl-pyrrole]	–	–	–	–	inhibition at 10 ppm ([1]; Oculimacula yallundae, Rate 10 ppm in agar medium): 100%; inhibition at 1 ppm (Pythium ultimum (Pyth); Globisporangium ultimum, 48 h): 100%; inhibition at 10 ppm [2, 7]: 100%
N#Cc1cc[nH]c1-c1cccc(Cl)c1 [2-(m-Chloro-phenyl)pyrrole-3-carbonitrile]	74	67	82	95	–
O=[N+]([O-])c1c(-c2ccc(Br)cc2)[nH]c(Cl)c1Cl [2-(p-Bromo-phenyl)-4,5-dichloro-3-nitropyrrole]	89	83	68	92	–
N#Cc1cc[nH]c1-c1ccccc1 [2-Phenylpyrrole-3-carbonitrile, 2-Phenylpyrrole-3-carbonitrile]	95	100	100	89	–
N#Cc1c(-c2ccccc2Cl)[nH]c(Cl)c1Cl [4,5 Dichloro-2-(o-chlorophenyl) pyrrole-3-carbo-nitrile]	–	–	–	–	% Growth Inhibition Botry (Botrytis cinerea (Botry); Rate 100 ppm in agar medium): 3.1%; % Growth Inhibition Pseudo ([1]; Rate 100 ppm in agar medium): 16.7%; % Growth Inhibition Pyth (Pythium ultimum (Pyth); Rate 100 ppm in agar medium): 0%; % Growth Inhibition Rhiz ([2]; Rate 100 ppm in agar medium, two days, room temperature): 52.6%
N#Cc1c(-c2ccc(Cl)cc2)[nH]c(Cl)c1Cl [4,5-Dichloro-2-(p-chlorophenyl)pyrrole-3-carbonitrile]	66.7	42.8	45	64.7	inhibition at 25 ppm (Botrytis cinerea (Botry); Botrytis cinerea, 120 h, Rate 25 ppm in agar medium): 82.1%; inhibition at 50 ppm (Botrytis cinerea (Botry); Botrytis cinerea, 120 h, Rate 50 ppm in agar medium): 71.4%; inhibition at 25 ppm ([1]; Oculimacula yallundae, Rate 25 ppm in agar medium): 0%; inhibition at 50 ppm ([1]; Oculimacula yallundae, Rate 50 ppm in agar medium): 40%; inhibition at 25 ppm (Pythium ultimum (Pyth); Globisporangium ultimum, 48 h, Rate 25 ppm in agar medium): 34.2%; inhibition at 50 ppm (Pythium ultimum (Pyth); Globisporangium ultimum, 48 h, Rate 50 ppm in agar medium): 44.7%; inhibition at 25 ppm ([2]; Rhizoctonia solani, 48 h, Rate 25 ppm in agar medium, two days, room temperature): 73.3%; inhibition at 50 ppm ([2]; Rhizoctonia solani, 48 h, Rate 50 ppm in agar medium, two days, room temperature): 73.3%
N#Cc1c(-c2ccc(Cl)cc2)[nH]c(C(F)(F)F)c1Br [4-Bromo-2-(p-chlorophenyl)-5-(trifluoromethyl)pyrrole-3-carbonitrile]	–	–	–	–	inhibition at 10 ppm ([2]; Rhizoctonia solani, 48 h): 100%
N#Cc1cc([N+](=O)[O-])c(-c2ccc(Cl)c(Cl)c2)[nH]1 [5-(3,4-Dichlorophenyl)-4-nitropyrrole-2-carbonitrile]	–	–	–	–	inhibition at 1 ppm (Pythium ultimum (Pyth); Globisporangium ultimum, 48 h): 100%; inhibition at 10 ppm [2, 7]: 100%
